In patent US20230339981A1, “KRAS G12D MODULATING COMPOUNDS” (priority 2022, published 2023):

How the values were obtained:
GDP-loaded KRAS G12D = GDP-loaded KRAS G12D (Homo sapiens (Human), UniProt P01116, G12D); assay: KRAS G12D (GDP) biochemical assay (TR-FRET probe displacement); format: binding; conditions: 2 hours
Description: Example A. KRAS G12D (GDP) Biochemical Assay
Compounds were tested for binding to GDP-loaded KRAS G12D in a 384-well assay format using a TR-FRET probe displacement assay in buffer consisting of 50 mM Hepes (pH 7.4), 150 mM NaCl, 5 mM MgCl2 and 0.005% Tween-20. […] Compounds were serially diluted (1:3) in DMSO. The LabCyte ECHO Acoustic dispenser system was used to pre-spot the assay plates (384-well Non-Binding Surface plates, Corning, Catalog #3824) with 50 nL of compound. The compounds were pre-incubated with 5 μL of 2× final enzyme concentration for 30 minutes before adding 5 μL of 2× final concentration of Eu-streptavidin and TR-FRET probe (10 μL final reaction volume). The plates were incubated at room temperature for 2 hours before measuring TR-FRET ratio on the Envision plate reader. IC50 values were defined as the compound concentration that causes a 50% decrease in TR-FRET ratio and were calculated using a sigmoidal dose-response model to generate curve fits.

GP2D (KRAS G12D) cells = assay: 2D cell viability assay (CellTiter-Glo); format: cell-based; conditions: GP2d, 96 h, 4 days
Description: Example B. 2D Cell Viability Assay
Compounds were tested in a 384-well format for their ability to inhibit the viability of GP2D (KRAS G12D) cells in 2D assays. Compounds were serially diluted (1:3) in DMSO. The LabCyte ECHO Acoustic dispenser system was used to pre-spot assay plates with 200 nL of test molecule per well. 1000 cells/well (40 μL volume per well) in RPMI medium with 10% FBS, and Penicillin-Streptomycin-Glutamine were plated in pre-spotted 384-well plates (Greiner, Catalog #781076) on the BioTEK EL406 liquid dispenser with a 5 μL dispensing cassette (BioTek 7170011). The plates were incubated at 37° C., 5% CO2 for 4 days before addition of CellTiter-Glo (CTG) reagent and measurement of luminescence signal. EC50 values were defined as the compound concentration that causes a 50% decrease in luminescence signal and were calculated using a sigmoidal dose-response model to generate curve fits.

Chain of GDP-loaded KRAS G12D (P01116-2 other isoform, or with tags, fused parts or gaps G12D): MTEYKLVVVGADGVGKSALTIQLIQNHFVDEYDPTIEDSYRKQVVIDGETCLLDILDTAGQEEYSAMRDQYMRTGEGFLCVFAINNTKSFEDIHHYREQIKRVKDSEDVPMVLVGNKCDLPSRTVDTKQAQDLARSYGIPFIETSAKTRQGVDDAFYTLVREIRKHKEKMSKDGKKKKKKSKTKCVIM

Structure (SMILES)	IC50 (GDP-loaded KRAS G12D) [nM]	EC50 (GP2D (KRAS G12D) cells) [nM]
C#Cc1c(F)ccc2cccc(-c3cc4c5c(nc(OC[C@@]67CCCN6C[C@H](F)C7)nc5c3F)N3C[C@H]5CC[C@H](N5)[C@H]3CCC4)c12 [Example 192, (1S,4R,15aR)-11-(8-ethynyl-7-fluoronaphthalen-1-yl)-10-fluoro-8-(((2R,7aS)-2-fluorotetrahydro-1H-pyrrolizin-7a(5H)-yl)methoxy)-2,3,4,5,13,14,15,15a-octahydro-1H-1,4-epiminoazepino[1′,2′:1,8]azocino[2,3,4-de]quinazoline]	0.1	4.5
C#Cc1c(F)ccc2cccc(-c3nc4c5c(nc(OC[C@@]67CCCN6C[C@H](F)C7)nc5c3F)N3C[C@H]5CC[C@H](N5)[C@@H]3[C@@H](C)C4)c12 [Example 84, (5S,5aS,6S,9R)-2-(8-ethynyl-7-fluoronaphthalen-1-yl)-1-fluoro-12-(((2R,7aS)-2-fluorotetrahydro-1H-pyrrolizin-7a(5H)-yl)methoxy)-5-methyl-4,5,5a,6,7,8,9,10-octahydro-3,10a,11,13,14-pentaaza-6,9-methanonaphtho[1,8-ab]heptalene]	3.9	27.7
C#Cc1c(F)ccc2cccc(-c3nc4c5c(nc(OC[C@@]67CCCN6C[C@H](F)C7)nc5c3F)N3C[C@H]5CC[C@H](N5)[C@H]3CC4(F)F)c12 [Example 98, (5aR,6S,9R)-2-(8-ethynyl-7-fluoronaphthalen-1-yl)-1,4,4-trifluoro-12-(((2R,7aS)-2-fluorotetrahydro-1H-pyrrolizin-7a(5H)-yl)methoxy)-4,5,5a,6,7,8,9,10-octahydro-3,10a,11,13,14-pentaaza-6,9-methanonaphtho[1,8-ab]heptalene]	12.6	124
Fc1ccc2cccc(-c3nc4c5c(nc(OC[C@@]67CCCN6C[C@H](F)C7)nc5c3F)N3C[C@H]5CC[C@H](N5)[C@H]3CC4)c2c1OC(F)(F)F [Example 65, (5aR,6S,9R)-1-fluoro-2-(7-fluoro-8-(trifluoromethoxy)naphthalen-1-yl)-12-(((2R,7aS)-2-fluorotetrahydro-1H-pyrrolizin-7a(5H)-yl)methoxy)-4,5,5a,6,7,8,9,10-octahydro-3,10a,11,13,14-pentaaza-6,9-methanonaphtho[1,8-ab]heptalene]	–	450
C#Cc1c(F)ccc2cccc(-c3nc4c5c(nc(OC[C@@]67CCCN6C[C@@H](OC(F)(F)F)C7)nc5c3F)N3C[C@H]5CC[C@H](N5)[C@H]3CC4)c12 (stereo in doubt) [Example 140, (5aR,6S,9R)-2-(8-ethynyl-7-fluoronaphthalen-1-yl)-1-fluoro-12-((cis-2-(trifluoromethoxy)tetrahydro-1H-pyrrolizin-7a(5H)-yl)methoxy)-4,5,5a,6,7,8,9,10-octahydro-3,10a,11,13,14-pentaaza-6,9-methanonaphtho[1,8-ab]heptalene]	–	75.9
C#Cc1c(F)ccc2cc(O)cc(-c3nc4c5c(nc(OC[Si](C)(C)CN6CCOCC6)nc5c3F)N3C[C@H]5CC[C@H](N5)[C@H]3CO4)c12 [Example 29, 4-((5aS,6S,9R)-12-((dimethyl(morpholinomethyl)silyl)methoxy)-1-fluoro-5a,6,7,8,9,10-hexahydro-5H-4-oxa-3,10a,11,13,14-pentaaza-6,9-methanonaphtho[1,8-ab]heptalen-2-yl)-5-ethynyl-6-fluoronaphthalen-2-ol]	–	> 1000
C#Cc1c(F)ccc2cc(O)cc(-c3nc4c5c(nc(OC[C@@]67CCCN6C[C@H](F)C7)nc5c3F)N3C[C@H]5CC[C@H](N5)[C@@H]3CC4)c12 [Example 133, 5-ethynyl-6-fluoro-4-((5aS,6S,9R)-1-fluoro-12-(((2R,7aS)-2-fluorotetrahydro-1H-pyrrolizin-7a(5H)-yl)methoxy)-4,5,5a,6,7,8,9,10-octahydro-3,10a,11,13,14-pentaaza-6,9-methanonaphtho[1,8-ab]heptalen-2-yl)naphthalen-2-ol]	–	1.1
